Tested on: α7 integrin promoter
Assay: muscle cell-based assay: α7βgal+/− myoblasts/myotubes, LacZ reporter, β-galactosidase cleavage of FDG
Design: species or system mouse; Results in α7+/− β-galactosidase assay: scale not given here
Conditions: for Results in a α7+/− β-galactosidase assay, Myotubes, 0.5 uM: compound at 0.5 uM; for Results in a α7+/− β-galactosidase assay, Myotubes, 1 uM: compound at 1 uM; for Results in a α7+/− β-galactosidase assay, Myotubes, 5 uM: compound at 5 uM; for Results in a α7+/− β-galactosidase assay, Myotubes, 10 uM: compound at 10 uM; for Results in a α7+/− β-galactosidase assay, Myotubes, 20 uM: compound at 20 uM; for Results in a α7+/− β-galactosidase assay, Myotubes, 40 uM: compound at 40 uM; for AC50: log of AC50, given with negative sign, unit of AC50 not given, read-out: Fit Log AC50 (converted); for Fit HillSlope: curve fit; for Fit Zero Activity [%]: fitted activity at zero concentration; for Fit Curve Class: key not given; for Score: Table 12 Compound data, concentration-response curve fit; for Results in α7+/− β-galactosidase assay: Myoblasts
Procedure, shortened: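 Fluorescein generated from FDG by β-galactosidase reports α7 integrin promoter activity in differentiated myoblasts from α7+/− LacZ knock-in pups. Screening hits then went to dose-response, western blotting and a myostatin counterscreen.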

Compound: CC(C)c1ccc(OC(=O)c2cccc(S(=O)(=O)N3CCN(C)CC3)c2)cc1 [drawing 398]
- Results in a α7+/− β-galactosidase assay, Myotubes, 0.5 uM: −0.02436
- Results in a α7+/− β-galactosidase assay, Myotubes, 1 uM: 0.01638
- Results in a α7+/− β-galactosidase assay, Myotubes, 5 uM: −0.2473
- Results in a α7+/− β-galactosidase assay, Myotubes, 10 uM: 0.3054
- Results in a α7+/− β-galactosidase assay, Myotubes, 20 uM: −0.1863
- Results in a α7+/− β-galactosidase assay, Myotubes, 40 uM: −0.2246

Compound: N#C/C(=C1/C(=O)Nc2ccc(Br)cc21)c1ccccn1 [drawing 359]
- Results in a α7+/− β-galactosidase assay, Myotubes, 0.5 uM: 0.2651
- Results in a α7+/− β-galactosidase assay, Myotubes, 1 uM: 0.03214
- Results in a α7+/− β-galactosidase assay, Myotubes, 5 uM: −0.1525
- Results in a α7+/− β-galactosidase assay, Myotubes, 10 uM: −0.1528
- Results in a α7+/− β-galactosidase assay, Myotubes, 20 uM: −0.2624
- Results in a α7+/− β-galactosidase assay, Myotubes, 40 uM: −0.2931

Compound: Cc1ccc(-c2onc3ccc(C(=O)/C=C/N(C)C)cc23)cc1 [Compound 39]
- AC50 (Mus musculus, Table 12): 3.55 µM
- Emax (Mus musculus, read-out: Max Response [%]): 69.1%
- Fit HillSlope (Table 12): 1.7529
- Fit Zero Activity [%] (Table 12): −9.0026%
- Fit Curve Class (Table 12): 1.2
- Score: 63

Compound: Cc1cccc(Sc2nc(-c3ccccc3)ccc2C#N)c1 [drawing 598]
- Results in α7+/− β-galactosidase assay (0.5 uM): −0.2243
- Results in α7+/− β-galactosidase assay (1 uM): −0.2124
- Results in α7+/− β-galactosidase assay (5 uM): 0.4228
- Results in α7+/− β-galactosidase assay (10 uM): 0.1696
- Results in α7+/− β-galactosidase assay (20 uM): −0.08803
- Results in α7+/− β-galactosidase assay (40 uM): −0.1146

Compound: O=C(NCCc1ccc(Cl)cc1)C1CCCO1 (stereo not shown) [drawing 689]
- Results in α7+/− β-galactosidase assay (0.5 uM): 0.03412
- Results in α7+/− β-galactosidase assay (1 uM): 0.00045
- Results in α7+/− β-galactosidase assay (5 uM): 0.2918
- Results in α7+/− β-galactosidase assay (10 uM): 0.03423
- Results in α7+/− β-galactosidase assay (20 uM): 0.08798
- Results in α7+/− β-galactosidase assay (40 uM): 0.003802

Compound: Cc1cccc(Sc2nc(-c3ccccc3)ccc2C#N)c1 [drawing 390]
- Results in a α7+/− β-galactosidase assay, Myotubes, 0.5 uM: −0.06701
- Results in a α7+/− β-galactosidase assay, Myotubes, 1 uM: −0.1813
- Results in a α7+/− β-galactosidase assay, Myotubes, 5 uM: 0.02472
- Results in a α7+/− β-galactosidase assay, Myotubes, 10 uM: 0.2322
- Results in a α7+/− β-galactosidase assay, Myotubes, 20 uM: −0.3206
- Results in a α7+/− β-galactosidase assay, Myotubes, 40 uM: −0.2803

Compound: Cc1ccc(N2C(=O)C3NN=C(C(=O)OCc4ccccc4)C3C2=O)cc1 (stereo not shown) [drawing 392]
- Results in a α7+/− β-galactosidase assay, Myotubes, 0.5 uM: −0.03749
- Results in a α7+/− β-galactosidase assay, Myotubes, 1 uM: −0.0238
- Results in a α7+/− β-galactosidase assay, Myotubes, 5 uM: −0.168
- Results in a α7+/− β-galactosidase assay, Myotubes, 10 uM: −0.2332
- Results in a α7+/− β-galactosidase assay, Myotubes, 20 uM: 0.00778
- Results in a α7+/− β-galactosidase assay, Myotubes, 40 uM: −0.01262

Compound: CN1CCN(c2ccccc2/C=C2\C(=O)Nc3ccccc32)CC1 [drawing 671]
- Results in α7+/− β-galactosidase assay (0.5 uM): 0.1788
- Results in α7+/− β-galactosidase assay (1 uM): 0.04505
- Results in α7+/− β-galactosidase assay (5 uM): −0.08497
- Results in α7+/− β-galactosidase assay (10 uM): −0.09387
- Results in α7+/− β-galactosidase assay (20 uM): −0.1256
- Results in α7+/− β-galactosidase assay (40 uM): −0.3824

Compound: CC(C)(C)c1csc(NC(=O)c2cccnc2)n1 [drawing 663]
- Results in α7+/− β-galactosidase assay (0.5 uM): 0.2482
- Results in α7+/− β-galactosidase assay (1 uM): 0.1813
- Results in α7+/− β-galactosidase assay (5 uM): 0.09125
- Results in α7+/− β-galactosidase assay (10 uM): 0.06663
- Results in α7+/− β-galactosidase assay (20 uM): −0.2863
- Results in α7+/− β-galactosidase assay (40 uM): −0.3378

Compound: COc1ccc(-n2c(C)c(C(C)=O)c3cc(OC(C)=O)ccc32)cc1 [Compound 59]
- AC50 (Mus musculus, Table 12): 10 µM
- Fit HillSlope (Table 12): 3.5722
- Fit Zero Activity [%] (Table 12): −3.6299%
- Fit Curve Class (Table 12): 2.1
- Score: 45

Compound: CCOC(=O)c1cc(C(=O)OCC)c(SCc2ccccc2)nc1O [drawing 416]
- Results in a α7+/− β-galactosidase assay, Myotubes, 0.5 uM: −0.05564
- Results in a α7+/− β-galactosidase assay, Myotubes, 1 uM: −0.06589
- Results in a α7+/− β-galactosidase assay, Myotubes, 5 uM: 0.2144
- Results in a α7+/− β-galactosidase assay, Myotubes, 10 uM: −0.09676
- Results in a α7+/− β-galactosidase assay, Myotubes, 20 uM: −0.147
- Results in a α7+/− β-galactosidase assay, Myotubes, 40 uM: −0.37

Compound: CC1(C)CC(O)=C/C(=N\c2ccc(C(=O)O)c(O)c2)C1 [Compound 99]
- AC50 (Mus musculus, Table 12): 10 µM
- Fit HillSlope (Table 12): 2.1211
- Fit Zero Activity [%] (Table 12): 0%
- Fit Curve Class (Table 12): 2.1
- Score: 43

Compound: C/N=C(\S)N1CCC(NC(=O)C(Cc2ccc(F)cc2)NC(C)=O)CC1 (stereo not shown) [Compound 82]
- AC50 (Mus musculus, Table 12): 3.16 µM
- Fit HillSlope (Table 12): 1.1341
- Fit Infinite Activity [%] (Table 12, fitted activity at infinite concentration): 89.9991%
- Fit Zero Activity [%] (Table 12): −6.4745%
- Fit Curve Class (Table 12): 2.1
- Score: 44

Compound: CCc1nc(/C=C2\C(=O)Nc3ccccc32)c[nH]1 [drawing 394]
- Results in a α7+/− β-galactosidase assay, Myotubes, 0.5 uM: 0.2902
- Results in a α7+/− β-galactosidase assay, Myotubes, 1 uM: 0.2582
- Results in a α7+/− β-galactosidase assay, Myotubes, 5 uM: −0.08702
- Results in a α7+/− β-galactosidase assay, Myotubes, 10 uM: −0.09062
- Results in a α7+/− β-galactosidase assay, Myotubes, 20 uM: −0.0001
- Results in a α7+/− β-galactosidase assay, Myotubes, 40 uM: −0.1577
